Test results published in patent publication US20100311714A1, “1H-IMIDAZO[4,5-c]QUINOLINONE COMPOUNDS” (priority 2009, published 2010).
Like-named read-outs stand apart in the source and are kept apart here.

What was measured:
mTOR = biological target: T1, mTOR (Homo sapiens, UniProt P42345); assay: Biochemical assay for m-TOR by TR-FRET
T1 construct: purchased Invitrogen Corporation (Carlsbad/Calif., USA) PV4753
How it was run: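 mTOR (0.5 nM) phosphorylates GFP-4EBP1 (400 nM) with 8 μM ATP at rt in 50 mM HEPES pH 7.5, 10 mM MnCl2, 50 mM NaCl, 1 mM EGTA, 1 mM DTT; compounds 0.003–10 μM final. EDTA stop with Tb-anti-p4EBP1[pT46] antibody (0.5 nM); TR-FRET read after 15 min against no-enzyme and vehicle controls.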

[1] = test system: PKB Ser473 phosphorylation in Rat1-myr-HA-p110 alpha cells; assay: Reverse protein array, PKB Ser473 phosphorylation in Rat1-myr-HA-p110 alpha cells; format: cell-based; settings: Rattus norvegicus, 0.5 h, 30 minutes compound incubation, read-out: p-PKB/IC50_alpha
[2] = Parallel Artificial Membrane Permeability Assay (PAMPA) at pH 6.8; format: physicochemical
How it was run: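 Reported as log Pe, membrane permeability was determined by parallel artificial membrane assay at pH 6.8 per Wohnsland–Faller.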

T1 sequence (P42345 1360-2549 limits assumed): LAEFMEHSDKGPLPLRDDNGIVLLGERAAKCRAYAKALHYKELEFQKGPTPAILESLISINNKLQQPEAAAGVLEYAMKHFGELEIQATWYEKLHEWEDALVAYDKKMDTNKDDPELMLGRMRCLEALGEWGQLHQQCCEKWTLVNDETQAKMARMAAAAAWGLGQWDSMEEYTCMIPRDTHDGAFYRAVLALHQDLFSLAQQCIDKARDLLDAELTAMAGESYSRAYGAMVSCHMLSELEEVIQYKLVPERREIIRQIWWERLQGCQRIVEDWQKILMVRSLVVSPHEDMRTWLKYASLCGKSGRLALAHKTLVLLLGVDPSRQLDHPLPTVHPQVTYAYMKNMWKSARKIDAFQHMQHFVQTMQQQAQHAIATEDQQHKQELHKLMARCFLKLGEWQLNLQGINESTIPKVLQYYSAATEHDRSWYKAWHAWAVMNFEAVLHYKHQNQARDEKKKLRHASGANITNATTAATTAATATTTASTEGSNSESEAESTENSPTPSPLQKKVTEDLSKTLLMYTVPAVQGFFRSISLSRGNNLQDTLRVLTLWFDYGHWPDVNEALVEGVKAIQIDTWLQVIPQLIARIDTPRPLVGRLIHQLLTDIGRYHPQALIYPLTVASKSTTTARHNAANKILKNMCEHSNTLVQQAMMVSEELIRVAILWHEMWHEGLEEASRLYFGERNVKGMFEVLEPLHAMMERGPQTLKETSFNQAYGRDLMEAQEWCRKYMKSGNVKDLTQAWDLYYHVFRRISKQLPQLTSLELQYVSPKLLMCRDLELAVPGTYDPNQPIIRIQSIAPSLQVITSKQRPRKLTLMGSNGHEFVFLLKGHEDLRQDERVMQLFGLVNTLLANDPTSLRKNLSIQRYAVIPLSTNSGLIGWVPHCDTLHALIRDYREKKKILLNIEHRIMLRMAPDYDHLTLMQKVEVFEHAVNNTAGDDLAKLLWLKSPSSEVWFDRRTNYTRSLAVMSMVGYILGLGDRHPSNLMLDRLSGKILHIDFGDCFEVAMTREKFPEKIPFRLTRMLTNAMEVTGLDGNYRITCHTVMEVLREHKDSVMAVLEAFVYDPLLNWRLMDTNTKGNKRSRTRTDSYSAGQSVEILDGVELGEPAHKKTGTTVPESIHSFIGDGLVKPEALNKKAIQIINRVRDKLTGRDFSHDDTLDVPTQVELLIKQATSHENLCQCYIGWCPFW

Row | Compound | IC50 (mTOR; read-out: EPK_mTOR/IC50) | IC50 [1] | HT-Perm logPe pH6.8 [2] | IC50 (mTOR; read-out: mTOR/IC50) | HT-perm/logPe pH6.8 [2]
1 | Cc1nc(F)ccc1-n1c(=O)n(C)c2cnc3ccc(-c4cncc(N)c4)cc3c21 [Example 7.16, 8-(5-Amino-pyridin-3-yl)-1-(6-fluoro-2-methyl-pyridin-3-yl)-3-methyl-1,3-dihydro-imidazo[4,5-c]quinolin-2-one] | 110 nM | 30.3 nM | −6 | – | –
2 | CNc1ncc(-c2ccc3ncc4c(c3c2)n(-c2ccc(F)nc2C)c(=O)n4C)cc1C(F)(F)F [Example 7.13, 1-(6-Fluoro-2-methyl-pyridin-3-yl)-3-methyl-8-(6-methylamino-5-trifluoromethyl-pyridin-3-yl)-1,3-dihydro-imidazo[4,5-c]quinolin-2-one] | 67 nM | < 4.57 nM | −3.7 | – | –
3 | CCNc1cc(-c2ccc3ncc4c(c3c2)n(-c2ccc(OC)nc2Cl)c(=O)n4C)cnc1C [Example 18.1, 1-(2-Chloro-6-methoxy-pyridin-3-yl)-8-(5-ethylamino-6-methyl-pyridin-3-yl)-3-methyl-1,3-dihydro-imidazo[4,5-c]quinolin-2-one] | 13 nM | < 4.57 nM | −3.6 | – | –
4 | COc1ncccc1-n1c(=O)n(C)c2cnc3ccc(-c4ccc(F)nc4)cc3c21 [Example 1.8, 8-(6-Fluoro-pyridin-3-yl)-1-(2-methoxy-pyridin-3-yl)-3-methyl-1,3-dihydro-imidazo[4,5-c]quinolin-2-one] | – | 97.6 nM | – | 87 nM | −3.7
5 | COCCN(C)c1ccc(-n2c(=O)n(C)c3cnc4ccc(-c5cnc(N(C)C)nc5)cc4c32)c(C)n1 [Example 15.5, 8-(2-Dimethylamino-pyrimidin-5-yl)-1-{6-[(2-methoxy-ethyl)-methyl-amino]-2-methyl-pyridin-3-yl}-3-methyl-1,3-dihydro-imidazo[4,5-c]quinolin-2-one] | 71 nM | 40.7 nM | −3.7 | – | –
6 | Cc1ccc(-n2c(=O)n(C)c3cnc4ccc(-c5cnc(N)c(C(F)(F)F)c5)cc4c32)c(C)n1 [Example 14.5, 8-(6-Amino-5-trifluoromethyl-pyridin-3-yl)-1-(2,6-dimethyl-pyridin-3-yl)-3-methyl-1,3-dihydro-imidazo[4,5-c]quinolin-2-one] | 17 nM | 4.9 nM | −3.8 | – | –
7 | COc1ncccc1-n1c(=O)n(C)c2cnc3ccc(-c4cnc(N(C)C)nc4)cc3c21 [Example 1.9, 8-(2-Dimethylamino-pyrimidin-5-yl)-1-(2-methoxy-pyridin-3-yl)-3-methyl-1,3-dihydro-imidazo[4,5-c]quinolin-2-one] | – | 57.6 nM | – | 14 nM | −3.3
8 | COCCOc1cc(-c2ccc3ncc4c(c3c2)n(-c2ccc(OC)nc2OC)c(=O)n4C)cnc1C [Example 8.9, 1-(2,6-Dimethoxy-pyridin-3-yl)-8-[5-(2-methoxy-ethoxy)-6-methyl-pyridin-3-yl]-3-methyl-1,3-dihydro-imidazo[4,5-c]quinolin-2-one] | 10 nM | 24.9 nM | −3.9 | – | –
9 | CNc1ncc(-c2ccc3ncc4c(c3c2)n(-c2cccnc2C)c(=O)n4C)cn1 [Example 2.2, 3-Methyl-8-(2-methylamino-pyrimidin-5-yl)-1-(2-methyl-pyridin-3-yl)-1,3-dihydro-imidazo[4,5-c]quinolin-2-one] | – | 15.9 nM | – | 8 nM | −4.7
10 | CCNc1cc(-c2ccc3ncc4c(c3c2)n(-c2ccc(OC)nc2C)c(=O)n4C)cnc1C [Example 11.7, 8-(5-Ethylamino-6-methyl-pyridin-3-yl)-1-(6-methoxy-2-methyl-pyridin-3-yl)-3-methyl-1,3-dihydro-imidazo[4,5-c]quinolin-2-one] | 3 nM | 4.9 nM | −3.7 | – | –
11 | COc1ccc(-c2ccc3ncc4c(c3c2)n(-c2cccnc2)c(=O)n4C)cn1 [Example 5.4, 8-(6-Methoxy-pyridin-3-yl)-3-methyl-1-pyridin-3-yl-1,3-dihydro-imidazo[4,5-c]quinolin-2-one] | – | 92.4 nM | – | 115 nM | −3.7
12 | CNc1ncc(-c2ccc3ncc4c(c3c2)n(-c2ccc(N(C)CCOC)nc2C)c(=O)n4C)cn1 [Example 15.2, 1-{6-[(2-Methoxy-ethyl)-methyl-amino]-2-methyl-pyridin-3-yl}-3-methyl-8-(2-methylamino-pyrimidin-5-yl)-1,3-dihydro-imidazo[4,5-c]quinolin-2-one] | 7 nM | 5 nM | −3.9 | – | –
13 | CCNc1cc(-c2ccc3ncc4c(c3c2)n(-c2ccc(OCCOC)nc2C)c(=O)n4C)cnc1C [Example 13.4, 8-(5-Ethylamino-6-methyl-pyridin-3-yl)-1-[6-(2-methoxy-ethoxy)-2-methyl-pyridin-3-yl]-3-methyl-1,3-dihydro-imidazo[4,5-c]quinolin-2-one] | 6 nM | < 4.57 nM | −4.1 | – | –
14 | CNc1ccc(-c2ccc3ncc4c(c3c2)n(-c2cnc(F)cc2C)c(=O)n4C)cn1 [Example 16.4, 1-(6-Fluoro-4-methyl-pyridin-3-yl)-3-methyl-8-(6-methylamino-pyridin-3-yl)-1,3-dihydro-imidazo[4,5-c]quinolin-2-one] | 704 nM | 30.7 nM | −4.2 | – | –
15 | CNc1cc(-c2ccc3ncc4c(c3c2)n(-c2ccc(C(F)(F)F)nc2C)c(=O)n4C)cnc1CO [Example 33.2, 8-(6-Hydroxymethyl-5-methylamino-pyridin-3-yl)-3-methyl-1-(2-methyl-6-trifluoromethyl-pyridin-3-yl)-1,3-dihydro-imidazo[4,5-c]quinolin-2-one] | 3 nM | 5.2 nM | −4.8 | – | –
16 | CCOc1ccc(-c2ccc3ncc4c(c3c2)n(-c2ccc(N(C)CCOC)nc2C)c(=O)n4C)cn1 [Example 15.3, 8-(6-Ethoxy-pyridin-3-yl)-1-{6-[(2-methoxy-ethyl)-methyl-amino]-2-methyl-pyridin-3-yl}-3-methyl-1,3-dihydro-imidazo[4,5-c]quinolin-2-one] | 120 nM | 12.3 nM | −3.8 | – | –
17 | COc1ccc(-c2ccc3ncc4c(c3c2)n(-c2cccnc2OC)c(=O)n4C)cn1 [Example 1.1, 1-(2-Methoxy-pyridin-3-yl)-8-(6-methoxy-pyridin-3-yl)-3-methyl-1,3-dihydro-imidazo[4,5-c]quinolin-2-one] | – | 42.9 nM | – | 36 nM | −3.6
18 | Cc1ccc(-n2c(=O)n(C)c3cnc4ccc(-c5cnc(N(C)C)nc5)cc4c32)c(C)n1 [Example 14.3, 8-(2-Dimethylamino-pyrimidin-5-yl)-1-(2,6-dimethyl-pyridin-3-yl)-3-methyl-1,3-dihydro-imidazo[4,5-c]quinolin-2-one] | 48 nM | 39 nM | −3.8 | – | –
19 | CNc1cc(-c2ccc3ncc4c(c3c2)n(-c2ccc(F)nc2C)c(=O)n4C)cnc1CO [Example 7.11, 1-(6-Fluoro-2-methyl-pyridin-3-yl)-8-(6-hydroxymethyl-5-methylamino-pyridin-3-yl)-3-methyl-1,3-dihydro-imidazo[4,5-c]quinolin-2-one] | 11 nM | 12.6 nM | −5.4 | – | –
20 | CNc1ccc(-c2ccc3ncc4c(c3c2)n(-c2ccc(N(C)CCOC)nc2C)c(=O)n4C)cn1 [Example 15.4, 1-{6-[(2-Methoxy-ethyl)-methyl-amino]-2-methyl-pyridin-3-yl}-3-methyl-8-(6-methylamino-pyridin-3-yl)-1,3-dihydro-imidazo[4,5-c]quinolin-2-one] | 11 nM | 7.2 nM | −3.7 | – | –
21 | COCC(=O)Nc1ccc(-n2c(=O)n(C)c3cnc4ccc(-c5cncc(N)c5)cc4c32)c(C)n1 [Example 20.1, N-{5-[8-(5-Amino-pyridin-3-yl)-3-methyl-2-oxo-2,3-dihydro-imidazo[4,5-c]quinolin-1-yl]-6-methyl-pyridin-2-yl}-2-methoxy-acetamide] | 7 nM | 287 nM | −6.1 | – | –
22 | CCNc1cc(-c2ccc3ncc4c(c3c2)n(-c2ccc(F)nc2C)c(=O)n4C)cnc1CO [Example 7.9, 8-(5-Ethylamino-6-hydroxymethyl-pyridin-3-yl)-1-(6-fluoro-2-methyl-pyridin-3-yl)-3-methyl-1,3-dihydro-imidazo[4,5-c]quinolin-2-one] | < 3 nM | < 4.57 nM | −5.2 | – | –
23 | COc1ncccc1-n1c(=O)n(C)c2cnc3ccc(-c4cnc(N)c(C(F)(F)F)c4)cc3c21 [Example 1.3, 8-(6-Amino-5-trifluoromethyl-pyridin-3-yl)-1-(2-methoxy-pyridin-3-yl)-3-methyl-1,3-dihydro-imidazo[4,5-c]quinolin-2-one] | – | 6.94 nM | – | 9 nM | −3.8
24 | Cc1nc(N2CC(F)(F)C2)ccc1-n1c(=O)n(C)c2cnc3ccc(-c4cncc(C(C)(C)O)c4)cc3c21 [Example 24.2, 1-[6-(3,3-Difluoro-azetidin-1-yl)-2-methyl-pyridin-3-yl]-8-[5-(1-hydroxy-1-methyl-ethyl)-pyridin-3-yl]-3-methyl-1,3-dihydro-imidazo[4,5-c]quinolin-2-one] | 48 nM | 17.5 nM | −5 | – | –
25 | Cc1nc(N2CCC(O)C2)ccc1-n1c(=O)n(C)c2cnc3ccc(-c4cncc(OC(C)C)c4)cc3c21 (stereo not drawn) [Example 27.1, 1-[6-(3-Hydroxy-pyrrolidin-1-yl)-2-methyl-pyridin-3-yl]-8-(5-isopropoxy-pyridin-3-yl)-3-methyl-1,3-dihydro-imidazo[4,5-c]quinolin-2-one] | 25 nM | 41.1 nM | −4.9 | – | –
